Patent publication US6451814B1, “Heterocyclic β-3 adrenergic receptor agonists” (Wyeth, priority 2000, dated 2002)
Where “and” joins values, the source holds several entries; their conditions need not be identical. Identical values can stand only once.

Key:
[1] = target: T1, human β3-adrenergic receptor (Homo sapiens, UniProt P13945); assay: cAMP response (SPA kit) in CHO cells transfected with human β3 adrenergic receptor; format: cell-based; settings: for EC50: CHO cells expressing human β3-AR, 10^-9 M to 10^-5 M, 30 min at 37° C., cAMP by SPA, read-out: EC50(β3); for IA(β3): maximal response of compound compared to maximal response of isoproterenol at 10^-5 M, CHO cells, human β3-AR
T1 construct: Full length β3 AR clones (402 amino acids) containing the last 6 amino acids of hβ3—AR are prepared; expressed in transfected cells; host or cells: CHO cells
T1 sequence (P13945 whole entry): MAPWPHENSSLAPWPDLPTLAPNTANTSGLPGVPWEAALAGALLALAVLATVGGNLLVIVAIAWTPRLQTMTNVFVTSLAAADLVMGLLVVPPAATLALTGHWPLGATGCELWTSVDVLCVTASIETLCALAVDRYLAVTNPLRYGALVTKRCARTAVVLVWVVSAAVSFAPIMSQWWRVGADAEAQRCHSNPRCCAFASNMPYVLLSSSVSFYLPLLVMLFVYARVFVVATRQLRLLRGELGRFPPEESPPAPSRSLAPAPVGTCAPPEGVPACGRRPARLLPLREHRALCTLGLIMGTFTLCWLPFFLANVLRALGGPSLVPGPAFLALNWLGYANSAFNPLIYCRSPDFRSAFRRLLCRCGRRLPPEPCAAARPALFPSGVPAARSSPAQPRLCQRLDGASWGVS

Compound	EC50 [1]	IA(β3) [1]	melting point
Cc1ccc(C(=O)CCNC(=O)N2CCC(Nc3ccc(CCNC[C@H](O)COc4ccc(O)cc4)cc3)CC2)cc1 [Example 28]	10 nM	0.76	85 to 89 °C
CCc1ccc(CCNC(=O)N2CCC(Nc3ccc(CCNC[C@H](O)COc4ccc(O)cc4)cc3)CC2)cc1 [Example 30, 4-(4-{2-[(2S)-2-Hydroxy-3-(4-hydroxy-phenoxy)-propylamino]-ethyl}-phenylamino)-piperidine-1-carboxylic Acid [2-(4-ethyl-phenyl)-ethyl]-amide]	34 nM and 49 nM and 22 nM and 98 nM	1 and 0.87 and 0.84 and 0.65	79 to 81 °C
O=C(NCc1c(F)cccc1F)N1CCC(Nc2ccc(CCNC[C@H](O)COc3ccc(O)cc3)cc2)CC1 [Example 32, 4-(4-{2-[(2S)-2-Hydroxy-3-(4-hydroxy-phenoxy)-propylamino]-ethyl}-phenylamino)-piperidine-1-carboxylic Acid 2,6-difluoro-benzylamide]	–	1.04 and 0.77	80 to 84 °C
O=C(NCc1ccc(-n2cccn2)cc1C(F)(F)F)N1CCC(Nc2ccc(CCNC[C@H](O)COc3ccc(O)cc3)cc2)CC1 [Example 34, 4-(4-{2-[(2S)-2-Hydroxy-3-(4-hydroxy-phenoxy)-propylamino]-ethyl}-phenylamino)-piperidine-1-carboxylic Acid 4-pyrazol-1-yl-2-trifluoromethyl-benzylamide]	62 nM	0.83	96 to 100 °C
CC(C)CCNC(=O)N1CCC(Nc2ccc(CCNC[C@H](O)COc3ccc(O)cc3)cc2)CC1 [Example 35, 4-(4-{2-[(2S)-2-Hydroxy-3-(4-hydroxy-phenoxy)-propylamino]-ethyl}-phenylamino)-piperidine-1-carboxylic Acid (3-methyl-butyl)-amide]	133 nM	0.96	72 to 77 °C
CCCCCCNC(=O)N1CCC(Sc2ccc(CCNC[C@H](O)COc3ccc(O)cc3)cc2)CC1 [Example 41, N-hexyl-4-{[4-(2-{[(2S)-2-hydroxy-3-(4-hydroxyphenoxy)propyl]amino}ethyl)phenyl]sulfanyl}-1-piperidinecarboxamide]	620 nM	0.84	181 to 195 °C
O=C(NCc1ccc(F)cc1)N1CCC(Sc2ccc(CCNC[C@H](O)COc3ccc(O)cc3)cc2)CC1 [Example 42, 4-(4-{2-[(2S)-2-Hydroxy-3-(4-hydroxy-phenoxy)-propylamino]-ethyl}-phenylsulfanyl)-piperidine-1-carboxylic Acid-4-fluorobenzylamide]	95 nM	0.72	181 to 183 °C
CS(=O)(=O)Nc1cc(OC[C@@H](O)CNCCc2ccc(NC3CCN(C(=O)NCc4cc(F)ccc4F)CC3)cc2)ccc1O [Example 50, 4-(4-{2-[(2S)-2-Hydroxy-3-(4-hydroxy-3-methanesulfonylamino-phenoxy)-propylamino]-ethyl}-phenylamino)-piperidine-1-carboxylic Acid 2,5-difluoro-benzylamide]	–	1	103 to 108 °C

More lines, now with the values ahead:

EC50 [1]	IA(β3) [1]	melting point	Compound
43 nM	1	69 to 72 °C	Cc1ccc(CCCNC(=O)N2CCC(Nc3ccc(CCNC[C@H](O)COc4ccc(O)cc4)cc3)CC2)cc1 [Example 29, 4-(4-{2-[(2S)-2-Hydroxy-3-(4-hydroxy-phenoxy)-propylamino]-ethyl}-phenylamino)-piperidine-1-carboxylic Acid (3-p-tolyl-propyl)-amide]
136 nM and 68 nM	0.69 and 0.4	91 to 94 °C	O=C(NCC(c1ccccc1)c1ccccc1)N1CCC(Nc2ccc(CCNC[C@H](O)COc3ccc(O)cc3)cc2)CC1 [Example 31, 4-(4-{2-[(2S)-2-Hydroxy-3-(4-hydroxy-phenoxy)-propylamino]-ethyl}-phenylamino)-piperidine-1-carboxylic Acid (2,2-diphenyl-ethyl)-amide]
55 nM	0.78	83 to 86 °C	O=C(NCc1ccccc1C(F)(F)F)N1CCC(Nc2ccc(CCNC[C@H](O)COc3ccc(O)cc3)cc2)CC1 [Example 33, 4-(4-{2-[(2S)-2-Hydroxy-3-(4-hydroxy-phenoxy)-propylamino]-ethyl}-phenylamino)-piperidine-1-carboxylic Acid 2-trifluoromethyl-benzylamide]
–	0.92	69 to 72 °C	O=C(NCc1cc(F)ccc1F)N1CCC(Nc2ccc(CCNC[C@H](O)COc3ccc(O)cc3)cc2)CC1 [Example 37, 4-(4-{2-[(2S)-2-Hydroxy-3-(4-hydroxy-phenoxy)-propylamino]-ethyl}-phenylamino)-piperidine-1-carboxylic Acid 2,5-difluoro-benzylamide]
36 nM	0.9	73 to 77 °C	O=C(NCc1ccc(F)cc1)N1CCC(Nc2ccc(OCCNC[C@H](O)COc3ccc(O)cc3)cc2)CC1 [Example 39, 4-(4-{2-[(2S)-2-Hydroxy-3-(4-hydroxy-phenoxy)-propylamino]-ethoxy}-phenylamino)-piperidine-1-carboxylic Acid 4-fluoro-benzylamide]
101 nM	0.9	121 °C	O=C(Nc1ccccc1)N1CCC(Sc2ccc(CCNC[C@H](O)COc3ccc(O)cc3)cc2)CC1 [Example 40, 4-(4-{2-[(2S)-2-Hydroxy-3-(4-hydroxy-phenoxy)-propylamino]-ethyl}-phenylsulfanyl)-piperidine-1-carboxylic Acid Phenylamide]
390 nM	0.81	132 °C	O=C(NCC1(c2ccccc2)CCCC1)N1CCC(Sc2ccc(CCNC[C@H](O)COc3ccc(O)cc3)cc2)CC1 [Example 43, 4-(4-{2-[(2S)-2-Hydroxy-3-(4-hydroxy-phenoxy)-propylamino]-ethyl}-phenylsulfanyl)-piperidine-1-carboxylic Acid (1-phenyl-cyclopentylmethyl)-amide]
31 nM	1	52 to 56 °C	CCCCCCCCNC(=O)N1CCC(S(=O)(=O)c2ccc(CCNC[C@H](O)COc3ccc(O)cc3)cc2)CC1 [Example 47, 4-(4-{2-[(2S)-2-Hydroxy-3-(4-hydroxy-phenoxy)-propylamino]-ethyl}-benzenesulfonyl)-piperidine-1-carboxylic Acid Octylamide]
50 nM	0.7	58 to 71 °C	CCCCCCCCNC(=O)N1CCC(S(=O)(=O)c2ccc(CCNC[C@H](O)COc3ccc(O)c(C)c3)cc2)CC1 [Example 48, 4-(4-{2-[(2S)-2-Hydroxy-3-(4-hydroxy-3-methyl-phenoxy)-propylamino]-ethyl}-benzenesulfonyl)-piperidine-1-carboxylic Acid Octylamide]
1 nM	0.82	93 to 97 °C	CCOC(=O)C1CCN(C(=O)N2CCC(Nc3ccc(CCNC[C@H](O)c4ccc(O)c(NS(C)(=O)=O)c4)cc3)CC2)CC1 [Example 51, 1-[4-(4-{2-[(2R)-2-Hydroxy-2-(4-hydroxy-3-methanesulfonylamino-phenyl)-ethylamino]-ethyl}-phenylamino)-piperidine-1-carbonyl]-piperidine-4-carboxylic Acid Ethyl Ester]
